ChEMBL document CHEMBL1201862, “PubChem BioAssay data set” (2004)
The source made the active and inactive calls.

Experiments:
[1] = target: DNA dC->dU-editing enzyme APOBEC-3G (Homo sapiens, UniProt Q9HC16); type: functional;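 further: Dose-response counterscreen measuring inhibition of APOBEC3G DNA deaminase activity, run while confirming APOBEC3A inhibitors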
[2] = target: DNA dC->dU-editing enzyme APOBEC-3A (Homo sapiens, UniProt P31941); assay: Dose Response confirmation of small molecule APOBEC3A DNA Deaminase Inhibitors via a fluorescence-based single-stranded DNA deaminase assay. [Related pubchem assays (depositor defined):AID493011, AID493024]; type: functional
[3] = NIH-3T3 fibroblast cytotoxicity, dose response, cytotoxicity control, cell-based, fluorescence, Alamar Blue, secondary assay (AID 2327); type: functional;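 further: NIH-3T3 mouse fibroblasts cultured with fluconazole at 8 µg/mL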
[4] = target: Luciferin 4-monooxygenase (Photinus pyralis, UniProt P08659); assay: inhibition of purified Photinus pyralis luciferase – biochemical, luminescence, dose response (AID 1891)
[5] = Luminescence Cell-Based Dose Confirmation HTS to Identify Inhibitors of Platelet Dense Granule Release. [Related pubchem assays: 1663 (Primary HTS), 1678 (Summary of Project)]; type: functional
[6] = target: Voltage-dependent T-type calcium channel subunit alpha-1H (Homo sapiens, UniProt O95180); type: functional;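 further: channel activity triggered by adding a high calcium stimulation buffer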
[7] = luciferase reporter signal reduction – luminescence, H4-C neuroglioblastoma cells, dose response (AID 2458); type: functional, cell-based;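 further: H4 neuroglioblastoma cells stably carrying a luciferase reporter gene fusion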
[8] = alpha-synuclein stem-loop translation blockers – luminescence, H4 neuroglioblastoma cells, dose confirmation, confirmation (AID 2454); type: functional, cell-based;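 further: H4 neuroglioblastoma cells carrying an alpha-synuclein 5'UTR luciferase reporter; potency for inhibition of the luciferase signal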
cells = type: functional, cell-based
Ion channel NompC = Ion channel NompC (Danio rerio, UniProt Q7T1G6); assay: Fluorescence counterscreen assay for TRPML3 agonists: dose response cell-based high-throughput screening assay to identify agonists of the transient receptor potential channel N1 (TRPN1). [Related pubchem assays: 1526, 1424, 1448 ]; type: functional
[9] = target: T1, Heat shock factor protein 1 (Mus musculus, UniProt P38532); assay: decrease of HSF1-responsive luciferase luminescence – cell-based, NIH3T3, dose retest, confirmation (AID 2382); type: functional;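 further: NIH3T3 fibroblasts with HSF1-driven luciferase reporter stressed by proteasome inhibitor MG132; luminescence from HSF1-driven luciferase expression after 8 hours of MG132 stress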
T1 sequence (P38532 whole entry): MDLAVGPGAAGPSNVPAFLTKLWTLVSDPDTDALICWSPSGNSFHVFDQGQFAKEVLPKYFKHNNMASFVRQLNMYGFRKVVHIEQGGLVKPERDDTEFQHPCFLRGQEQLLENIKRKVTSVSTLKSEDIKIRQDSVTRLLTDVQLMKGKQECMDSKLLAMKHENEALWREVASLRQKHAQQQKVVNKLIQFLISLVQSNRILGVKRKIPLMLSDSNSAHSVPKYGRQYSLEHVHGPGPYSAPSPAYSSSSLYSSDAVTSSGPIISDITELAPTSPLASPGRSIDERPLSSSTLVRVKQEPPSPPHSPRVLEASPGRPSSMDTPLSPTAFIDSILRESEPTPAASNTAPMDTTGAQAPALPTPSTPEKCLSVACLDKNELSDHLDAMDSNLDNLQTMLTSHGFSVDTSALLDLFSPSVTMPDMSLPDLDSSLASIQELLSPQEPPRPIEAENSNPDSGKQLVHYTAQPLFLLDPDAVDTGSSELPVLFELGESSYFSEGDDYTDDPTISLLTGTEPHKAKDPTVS

Mucolipin-3 = target: T2, Mucolipin-3 (Homo sapiens, UniProt Q8TDD5); assay: Dose response cell-based high-throughput screening assay for agonists of the transient receptor potential channel ML3 (TRPML3). [Related pubchem assays: 1526, 1424, 1448 ]; type: functional
T2 sequence (Q8TDD5 whole entry): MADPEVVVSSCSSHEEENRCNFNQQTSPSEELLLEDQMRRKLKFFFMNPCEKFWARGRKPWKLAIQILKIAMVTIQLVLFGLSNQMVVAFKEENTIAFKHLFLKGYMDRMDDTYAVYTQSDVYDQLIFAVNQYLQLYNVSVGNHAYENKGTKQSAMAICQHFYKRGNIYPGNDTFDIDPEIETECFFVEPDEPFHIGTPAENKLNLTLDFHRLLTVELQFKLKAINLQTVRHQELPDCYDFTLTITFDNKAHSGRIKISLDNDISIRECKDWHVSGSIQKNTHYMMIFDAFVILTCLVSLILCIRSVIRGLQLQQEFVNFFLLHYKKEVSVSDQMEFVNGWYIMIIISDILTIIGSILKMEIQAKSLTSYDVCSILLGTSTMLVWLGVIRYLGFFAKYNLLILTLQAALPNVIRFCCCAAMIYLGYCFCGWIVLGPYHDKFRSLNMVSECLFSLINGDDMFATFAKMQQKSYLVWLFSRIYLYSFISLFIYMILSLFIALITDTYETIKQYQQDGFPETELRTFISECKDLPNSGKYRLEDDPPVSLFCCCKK

[10] = Luminescence Cell-Based Dose Response HTS to Identify Inhibitors of 5'UTR Stem-Loop Driven Prion Protein mRNA Translation in H4 Neuroglioblastoma Cells. [Related pubchem assays: 1827 (Project Summary), 1813 (Primary HTS)]; type: functional
[11] = luciferase reporter signal suppression in cells – H4 neuroglioma cells, luminescence, dose response (AID 1990); type: functional, cell-based
[12] = target: T3, Alkaline phosphatase, tissue-nonspecific isozyme (Homo sapiens, UniProt P05186); assay: potency against alkaline phosphatase TNAP – biochemical, luminescent, dose response, SAR follow-up (AID 1056)
T3 sequence (P05186 whole entry): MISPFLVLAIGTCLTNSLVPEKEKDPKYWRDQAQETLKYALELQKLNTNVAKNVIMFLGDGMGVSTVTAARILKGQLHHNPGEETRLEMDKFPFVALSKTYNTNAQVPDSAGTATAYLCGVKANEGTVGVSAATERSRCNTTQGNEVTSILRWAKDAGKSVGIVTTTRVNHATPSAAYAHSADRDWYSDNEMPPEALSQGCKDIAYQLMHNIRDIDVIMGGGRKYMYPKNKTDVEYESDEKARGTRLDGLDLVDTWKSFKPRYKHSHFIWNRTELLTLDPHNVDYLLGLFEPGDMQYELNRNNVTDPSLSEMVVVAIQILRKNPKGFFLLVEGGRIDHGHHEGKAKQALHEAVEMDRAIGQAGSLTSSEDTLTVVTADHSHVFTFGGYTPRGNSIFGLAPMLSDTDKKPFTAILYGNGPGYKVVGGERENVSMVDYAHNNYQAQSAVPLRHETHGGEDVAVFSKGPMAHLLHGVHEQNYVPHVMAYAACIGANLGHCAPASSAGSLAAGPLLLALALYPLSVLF

[13] = target: Glyceraldehyde-3-phosphate dehydrogenase (Homo sapiens, UniProt P04406)
[14] = A cytotoxicity screen of small molecule inhibitors of the PhoP region in Salmonella typhi identified in the primary screen. [Related pubchem assays: 1850, 1864, 1985 ]; type: functional
Cytochrome P450 1A2 = target: T4, Cytochrome P450 1A2 (Homo sapiens, UniProt P05177);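 further: PubChem cytochrome P450 panel assay, CYP1A2 panel member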
T4 sequence (P05177 whole entry): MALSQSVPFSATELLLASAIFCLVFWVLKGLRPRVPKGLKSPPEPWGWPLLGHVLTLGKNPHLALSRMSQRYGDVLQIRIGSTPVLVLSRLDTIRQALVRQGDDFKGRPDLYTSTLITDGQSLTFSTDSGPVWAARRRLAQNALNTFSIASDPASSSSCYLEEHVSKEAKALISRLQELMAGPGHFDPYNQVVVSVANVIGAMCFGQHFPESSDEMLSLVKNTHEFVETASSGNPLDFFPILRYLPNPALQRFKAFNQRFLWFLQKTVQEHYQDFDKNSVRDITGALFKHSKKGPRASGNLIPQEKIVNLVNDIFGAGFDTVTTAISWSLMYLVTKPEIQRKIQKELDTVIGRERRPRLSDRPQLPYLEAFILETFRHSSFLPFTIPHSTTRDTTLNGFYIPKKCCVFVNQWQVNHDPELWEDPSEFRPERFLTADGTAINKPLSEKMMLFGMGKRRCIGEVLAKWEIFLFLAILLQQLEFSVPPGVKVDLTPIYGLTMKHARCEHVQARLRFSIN

Estrogen receptor beta [15] = target: T5, Estrogen receptor beta (Homo sapiens, UniProt Q92731);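 further: recombinant ER-beta bound to coactivator SRC1 peptide in presence of estradiol agonist; inhibitors block coactivator peptide binding and lower the FRET signal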
Cytochrome P450 2C9 = Cytochrome P450 2C9 (Homo sapiens, UniProt P11712)
Cytochrome P450 2C19 = Cytochrome P450 2C19 (Homo sapiens, UniProt P33261); assay: Cytochrome panel assay with activity outcomes. Panel member name: p450-cyp2c19 Compounds with AC50 equal or less than 10 uM are considered active; type: functional
Estrogen receptor beta [16] = target: T5, Estrogen receptor beta; assay: blockers of SRC-3 recruitment to ERβ – biochemical, ELISA, streptavidin-HRP readout, orthogonal assay, confirmation (AID 1060)
Cytochrome P450 3A4 = Cytochrome P450 3A4 (Homo sapiens, UniProt P08684);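 further: CYP3A4 tested as one member of a cytochrome P450 panel screen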
[17] = Luminescence Cell-Based Dose Response HTS to Identify Activators of Luciferase Translation or Activity in H4 […] Cells. [Related pubchem assays: 1829 (Project Summary), 1814 (Primary HTS)]; type: functional
H4 = assay: Luminescence Cell-Based Dose Response HTS to Identify Activators of 5'UTR Stem-Loop Driven Prion Protein mRNA Translation in H4 Neuroglioblastoma Cells. [Related pubchem assays: 1829 (Project Summary), 1814 (Primary HTS)]; type: functional; conditions: Homo sapiens
[18] = Luminescence Cell-Based Dose Confirmation HTS to Identify Activators of 5'UTR Stem-Loop Driven Alpha-Synuclein mRNA Translation in H4 Neuroglioblastoma Cells. [Related pubchem assays: 1829 (Project Summary), 1814 (Primary HTS)]; type: functional
Bcl-2-like protein 10 = target: T6, Bcl-2-like protein 10 (Homo sapiens, UniProt Q9HD36); assay: Bcl-B/TR3 peptide binding disruption – biochemical, fluorescence polarization, FITC-TR3 peptide, selectivity assay for Bfl-1 inhibitor project, primary screen (AID 748);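 further: fluorescence polarization from a fluorescein-labelled TR3 peptide binding purified Bcl-B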
T6 sequence (Q9HD36 whole entry): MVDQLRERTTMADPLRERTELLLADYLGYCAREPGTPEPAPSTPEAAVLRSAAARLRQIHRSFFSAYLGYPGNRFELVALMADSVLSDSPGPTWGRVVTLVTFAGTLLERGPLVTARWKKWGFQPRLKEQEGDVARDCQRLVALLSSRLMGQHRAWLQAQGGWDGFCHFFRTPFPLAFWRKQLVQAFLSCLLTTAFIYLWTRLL

[19] = viability loss in THP-1 monocytes – THP-1 cells, cytotoxicity control for Vif-APOBEC3G degradation inhibitor project, dose response (AID 1117359); type: functional; conditions: THP-1

Voltage-dependent T-type calcium channel subunit alpha-1H, sequence (O95180 whole entry, the tested form may be a part): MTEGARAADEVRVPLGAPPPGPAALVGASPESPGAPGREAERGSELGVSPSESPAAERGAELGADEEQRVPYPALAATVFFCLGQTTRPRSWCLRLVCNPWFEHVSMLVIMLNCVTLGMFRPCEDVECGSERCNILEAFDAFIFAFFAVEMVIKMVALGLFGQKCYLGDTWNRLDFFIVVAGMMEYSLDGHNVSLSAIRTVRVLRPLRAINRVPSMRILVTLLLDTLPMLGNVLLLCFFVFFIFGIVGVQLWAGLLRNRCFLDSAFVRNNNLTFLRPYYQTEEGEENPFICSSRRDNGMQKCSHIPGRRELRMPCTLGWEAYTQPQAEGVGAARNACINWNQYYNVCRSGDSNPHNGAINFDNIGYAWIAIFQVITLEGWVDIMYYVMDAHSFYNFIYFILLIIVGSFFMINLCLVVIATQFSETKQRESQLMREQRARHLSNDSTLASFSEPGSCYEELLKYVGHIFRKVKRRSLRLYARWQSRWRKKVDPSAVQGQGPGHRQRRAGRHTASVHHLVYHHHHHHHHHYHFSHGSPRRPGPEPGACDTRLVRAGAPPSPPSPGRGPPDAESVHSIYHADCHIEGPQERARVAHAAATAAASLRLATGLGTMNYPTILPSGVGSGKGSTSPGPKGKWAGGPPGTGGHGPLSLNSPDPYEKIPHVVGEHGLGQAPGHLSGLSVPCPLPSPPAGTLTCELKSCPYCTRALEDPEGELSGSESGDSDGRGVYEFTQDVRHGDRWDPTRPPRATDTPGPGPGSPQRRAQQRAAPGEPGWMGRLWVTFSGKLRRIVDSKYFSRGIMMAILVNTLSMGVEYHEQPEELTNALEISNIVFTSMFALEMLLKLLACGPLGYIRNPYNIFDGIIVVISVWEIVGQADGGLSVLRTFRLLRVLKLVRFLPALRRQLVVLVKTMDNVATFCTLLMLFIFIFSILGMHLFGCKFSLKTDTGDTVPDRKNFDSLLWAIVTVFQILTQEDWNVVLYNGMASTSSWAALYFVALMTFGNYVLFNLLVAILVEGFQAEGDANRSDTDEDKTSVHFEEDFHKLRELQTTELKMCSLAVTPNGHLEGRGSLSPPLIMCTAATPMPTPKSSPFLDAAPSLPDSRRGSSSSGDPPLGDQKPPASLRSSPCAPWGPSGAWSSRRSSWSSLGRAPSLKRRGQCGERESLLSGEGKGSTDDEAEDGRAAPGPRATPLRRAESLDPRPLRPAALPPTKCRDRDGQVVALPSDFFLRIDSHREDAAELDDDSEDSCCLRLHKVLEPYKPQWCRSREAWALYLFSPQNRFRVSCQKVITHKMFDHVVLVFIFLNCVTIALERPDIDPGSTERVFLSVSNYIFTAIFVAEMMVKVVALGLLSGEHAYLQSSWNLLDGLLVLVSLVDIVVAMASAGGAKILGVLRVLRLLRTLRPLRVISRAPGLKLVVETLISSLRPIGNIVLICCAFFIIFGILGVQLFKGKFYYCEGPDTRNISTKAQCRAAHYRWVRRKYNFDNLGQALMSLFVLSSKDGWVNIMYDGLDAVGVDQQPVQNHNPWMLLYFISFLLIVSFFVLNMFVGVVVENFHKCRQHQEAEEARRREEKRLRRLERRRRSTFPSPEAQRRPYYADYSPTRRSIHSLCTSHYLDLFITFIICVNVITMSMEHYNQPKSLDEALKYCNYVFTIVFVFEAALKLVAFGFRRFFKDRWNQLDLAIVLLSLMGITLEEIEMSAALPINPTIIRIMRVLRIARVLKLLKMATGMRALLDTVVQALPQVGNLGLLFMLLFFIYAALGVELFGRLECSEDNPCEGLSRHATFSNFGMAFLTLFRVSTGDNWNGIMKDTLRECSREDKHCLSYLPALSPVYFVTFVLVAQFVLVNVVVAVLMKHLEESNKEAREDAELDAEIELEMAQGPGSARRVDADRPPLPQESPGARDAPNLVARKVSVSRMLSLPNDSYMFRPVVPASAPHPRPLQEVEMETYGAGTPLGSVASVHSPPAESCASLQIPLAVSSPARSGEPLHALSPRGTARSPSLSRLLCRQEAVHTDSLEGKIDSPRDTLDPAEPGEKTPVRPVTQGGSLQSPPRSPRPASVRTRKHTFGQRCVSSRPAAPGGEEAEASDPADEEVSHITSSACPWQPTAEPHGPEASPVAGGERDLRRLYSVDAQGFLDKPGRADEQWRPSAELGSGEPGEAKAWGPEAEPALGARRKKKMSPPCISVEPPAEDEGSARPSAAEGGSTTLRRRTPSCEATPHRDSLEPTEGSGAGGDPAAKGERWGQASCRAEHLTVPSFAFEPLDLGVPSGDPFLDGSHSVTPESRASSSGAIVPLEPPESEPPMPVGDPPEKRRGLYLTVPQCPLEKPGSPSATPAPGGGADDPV
Luciferin 4-monooxygenase, sequence (P08659 whole entry): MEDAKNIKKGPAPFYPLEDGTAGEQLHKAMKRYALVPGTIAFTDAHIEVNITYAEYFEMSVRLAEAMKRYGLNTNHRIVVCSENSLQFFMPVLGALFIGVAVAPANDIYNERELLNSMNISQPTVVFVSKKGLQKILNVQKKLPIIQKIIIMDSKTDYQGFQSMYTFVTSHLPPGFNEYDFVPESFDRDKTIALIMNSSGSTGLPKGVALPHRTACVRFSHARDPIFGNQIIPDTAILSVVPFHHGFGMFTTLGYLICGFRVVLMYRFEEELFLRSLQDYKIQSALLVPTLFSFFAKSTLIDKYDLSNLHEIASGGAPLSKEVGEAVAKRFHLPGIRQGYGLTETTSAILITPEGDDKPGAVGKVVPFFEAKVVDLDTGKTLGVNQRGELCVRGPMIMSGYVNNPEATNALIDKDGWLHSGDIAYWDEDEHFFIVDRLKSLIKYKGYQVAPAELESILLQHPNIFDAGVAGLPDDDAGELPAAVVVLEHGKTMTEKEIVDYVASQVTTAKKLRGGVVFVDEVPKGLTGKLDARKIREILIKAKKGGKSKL
Glyceraldehyde-3-phosphate dehydrogenase, sequence (P04406 whole entry): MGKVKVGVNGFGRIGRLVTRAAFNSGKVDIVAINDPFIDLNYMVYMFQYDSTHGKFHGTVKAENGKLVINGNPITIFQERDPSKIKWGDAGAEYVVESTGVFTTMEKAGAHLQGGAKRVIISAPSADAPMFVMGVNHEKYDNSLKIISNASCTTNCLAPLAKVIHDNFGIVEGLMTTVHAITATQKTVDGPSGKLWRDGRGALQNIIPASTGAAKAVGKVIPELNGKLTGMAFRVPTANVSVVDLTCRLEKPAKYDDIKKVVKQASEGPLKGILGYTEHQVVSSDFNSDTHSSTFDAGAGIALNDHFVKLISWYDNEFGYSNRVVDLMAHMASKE
DNA dC->dU-editing enzyme APOBEC-3A, sequence (P31941 whole entry): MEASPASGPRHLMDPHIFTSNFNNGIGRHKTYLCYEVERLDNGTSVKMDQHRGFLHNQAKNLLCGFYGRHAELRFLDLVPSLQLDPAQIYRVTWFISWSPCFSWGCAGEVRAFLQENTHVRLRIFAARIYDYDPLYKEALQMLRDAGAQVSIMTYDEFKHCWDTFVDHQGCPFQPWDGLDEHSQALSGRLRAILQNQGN
Ion channel NompC, sequence (Q7T1G6 whole entry): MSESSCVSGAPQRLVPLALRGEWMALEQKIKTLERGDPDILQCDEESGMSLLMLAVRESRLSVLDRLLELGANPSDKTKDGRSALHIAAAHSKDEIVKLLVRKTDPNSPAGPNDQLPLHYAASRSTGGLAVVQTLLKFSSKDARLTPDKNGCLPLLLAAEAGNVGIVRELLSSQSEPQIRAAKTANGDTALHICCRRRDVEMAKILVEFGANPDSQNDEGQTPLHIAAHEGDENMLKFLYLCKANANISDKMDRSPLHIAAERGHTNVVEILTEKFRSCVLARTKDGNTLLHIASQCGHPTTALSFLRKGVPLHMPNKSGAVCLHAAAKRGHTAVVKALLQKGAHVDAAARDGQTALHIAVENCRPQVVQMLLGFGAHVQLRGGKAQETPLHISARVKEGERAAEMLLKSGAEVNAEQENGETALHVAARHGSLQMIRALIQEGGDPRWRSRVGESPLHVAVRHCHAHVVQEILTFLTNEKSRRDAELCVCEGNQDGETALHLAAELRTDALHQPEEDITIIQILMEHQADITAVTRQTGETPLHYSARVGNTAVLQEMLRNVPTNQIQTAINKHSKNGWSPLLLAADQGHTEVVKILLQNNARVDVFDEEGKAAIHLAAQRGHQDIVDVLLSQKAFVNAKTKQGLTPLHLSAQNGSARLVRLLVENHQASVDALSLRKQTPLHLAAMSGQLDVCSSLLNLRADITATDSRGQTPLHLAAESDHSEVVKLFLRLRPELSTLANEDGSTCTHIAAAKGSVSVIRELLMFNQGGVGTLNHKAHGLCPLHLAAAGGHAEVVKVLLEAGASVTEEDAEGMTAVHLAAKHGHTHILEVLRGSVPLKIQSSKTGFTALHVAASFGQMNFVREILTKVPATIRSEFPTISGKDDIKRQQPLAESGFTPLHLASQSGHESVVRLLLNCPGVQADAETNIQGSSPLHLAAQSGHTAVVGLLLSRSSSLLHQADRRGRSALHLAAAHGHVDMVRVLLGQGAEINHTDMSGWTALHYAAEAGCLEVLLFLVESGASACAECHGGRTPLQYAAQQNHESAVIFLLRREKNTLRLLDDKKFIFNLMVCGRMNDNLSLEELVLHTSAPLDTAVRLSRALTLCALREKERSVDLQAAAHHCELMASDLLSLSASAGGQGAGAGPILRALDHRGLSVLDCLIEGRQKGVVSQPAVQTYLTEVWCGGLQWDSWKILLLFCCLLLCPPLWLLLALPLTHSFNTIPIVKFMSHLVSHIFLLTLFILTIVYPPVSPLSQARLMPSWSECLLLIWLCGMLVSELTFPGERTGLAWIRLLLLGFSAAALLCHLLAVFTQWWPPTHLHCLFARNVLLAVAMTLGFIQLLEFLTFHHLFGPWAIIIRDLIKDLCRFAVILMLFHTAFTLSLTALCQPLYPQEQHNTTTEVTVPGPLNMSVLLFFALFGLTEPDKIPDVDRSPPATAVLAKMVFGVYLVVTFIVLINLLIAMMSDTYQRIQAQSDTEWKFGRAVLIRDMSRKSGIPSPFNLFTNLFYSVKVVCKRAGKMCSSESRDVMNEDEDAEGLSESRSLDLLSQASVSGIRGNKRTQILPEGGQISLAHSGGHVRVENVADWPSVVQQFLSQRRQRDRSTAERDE

## CCOc1cc(/C=C(\C#N)C(=O)NCC2CCCO2)ccc1OCC(N)=O (stereo unspecified)
[1]
  IC50: 11 µM (active)
[2]
  IC50: 8.13 µM (active)
[3]
  EC50: > 160 µM (inactive)

## CC(C)(C)n1nnnc1C(c1ccc(Cl)cc1)N1CCSCC1 (stereo unspecified)
[4]
  EC50: > 112 µM (not active)
[5]
  EC50: > 112 µM (not active)
[6]
  EC50: 0.85 µM (active)

## C=CCSc1nc2c(cnn2-c2ccccc2)c(=O)n1N
[7]
  EC50: 0.375 µM (inconclusive)
[8]
  EC50: 0.235 µM (inconclusive)
cells
  EC50: 0.914 µM (inconclusive)

## CCCCn1c(C)cc(C)c(S(=O)(=O)c2ccccc2C)c1=O
Ion channel NompC
  EC50: > 29.9 µM (not active)
[9]
  EC50: > 195 µM (not active)
Mucolipin-3
  EC50: 3.78 µM (active)

## Cc1ccc(Cn2cc(C=O)c3ccccc32)cc1
[7]
  EC50: 1.22 µM (active)
[10]
  EC50: < 0.1 µM (active)
[11]
  EC50: 4.41 µM (active)
[8]
  EC50: 1.29 µM (active)
cells
  EC50: 0.782 µM (active)

## COC(=O)c1cc(-c2ccc(C)cc2)[nH]n1
[12]
  IC50: 3.43 µM (active)
[13]
  IC50: > 100 µM (not active)

## COc1ccccc1N1CCN(CCCCOc2ccc(F)cc2)CC1
[6]
  EC50: 7.52 µM (active)

## CC1=C(C#N)CCC(=O)N1Cc1c(C)cc(C)cc1C
[14]
  EC50: > 50 µM (active)

## CC1(C)CCCC2=C1CC1C(=O)N(c3ccccc3)C(=O)C1C2 (stereo unspecified)
Ion channel NompC
  EC50: > 29.9 µM (not active)
Mucolipin-3
  EC50: > 29.9 µM (not active)

## O=C(Nc1ccc2c(c1)OCCO2)c1cc2sccc2n1Cc1ccccc1
Cytochrome P450 1A2
  AC50: 12.6 µM (inconclusive)
[6]
  EC50: 7.92 µM (active)

## COc1ccc(NC(=O)N2CCc3ccccc32)cc1
[4]
  EC50: 3.53 µM (active)
[14]
  EC50: > 50 µM (active)
[5]
  EC50: 1.08 µM (active)

## Cc1ccc(C)c(C(=O)C2=C(O)C(=O)N(CCN3CCOCC3)C2c2ccco2)c1 (stereo unspecified)
Estrogen receptor beta [15]
  IC50: 18.4 µM (active)
Cytochrome P450 2C9
  AC50: 0.1 µM (inconclusive)
Cytochrome P450 2C19
  AC50: inconclusive
Estrogen receptor beta [16]
  IC50: 32.1 µM (not active)
Cytochrome P450 3A4
  AC50: 39.8 µM (inconclusive)

## COc1ccc(CCn2c(=N)c(C(=O)NCC3CCCO3)cc3c(=O)n4ccccc4nc32)cc1 (stereo unspecified)
[4]
  EC50: > 112 µM (not active)
[14]
  EC50: > 50 µM (active)
[5]
  EC50: 15.7 µM (active)

## Nc1ccc2nc(SCC(=O)Nc3ccc(N4CCOCC4)c(Cl)c3)sc2c1
[1]
  IC50: 8.08 µM (active)
[17]
  EC50: 9.41 µM (active)
[2]
  IC50: 3.65 µM (active)
H4
  EC50: 49.1 µM (active)
[18]
  EC50: 14.9 µM (active)

## Cc1nn2c(N)csc2nc1=O
Bcl-2-like protein 10
  IC50: > 12.5 µM (inactive)

## C#CCSc1nnc(N)[nH]1
[12]
  IC50: > 100 µM (inactive)
[13]
  IC50: > 100 µM (not active)

## O=[N+]([O-])c1cc(-c2ccc(/C=N/c3nc4ccccn4c3-c3ccco3)o2)ccc1Cl
Bcl-2-like protein 10
  IC50: 96.8 µM (inactive)
[19]
  CC50: 18.8 µM (active)
